What was measured:
RgNanOx [1] = target: T1, RgNanOx (Mediterraneibacter gnavus, UniProt A7B558); assay: X-ray crystal structure of the complex ([…] and […] A); assay type: binding; settings: NAD+ bound at Rossmann fold; citric acid from crystallization buffer beside nicotinamide; sodium citrate pH […], PEG […]
T1 construct: gene RUMGNA_02695; Gfo/Idh/MocA-class Rossmann fold; dimer in the asymmetric unit

RgNanOx [2] = target: T1, RgNanOx; assay: differential scanning fluorimetry; assay type: binding; settings: […] NADH, […] protein, […] sodium phosphate pH […]

| SMILES | X-ray crystal structure of the complex (2.58 and 1.74 A) (RgNanOx [1]) | ΔTm (RgNanOx [2]) |
| --- | --- | --- |
| NC(=O)c1ccc[n+]([C@@H]2O[C@H](COP(=O)(O)OP(=O)(O)OC[C@H]3O[C@@H](n4cnc5c(N)ncnc54)[C@H](O)[C@@H]3O)[C@@H](O)[C@H]2O)c1 [NAD^+] | crystal structure of the recombinant RgNanOx in complex with the NAD^+ cofactor was solved |  |
| NC(=O)C1=CN([C@@H]2O[C@H](COP(=O)(O)OP(=O)(O)OC[C@H]3O[C@@H](n4cnc5c(N)ncnc54)[C@H](O)[C@@H]3O)[C@@H](O)[C@H]2O)C=CC1 [NADH] |  | DSF analysis of RgNanOx and EcNanOx, the ΔTm is shown |

From paper PMC7535918, “Uncovering a novel molecular mechanism for scavenging sialic acids in bacteria” (The Journal of Biological Chemistry, 2020)
